According to the NIST ThermoML archive (doi:10.1021/acs.jced.6b00655):

Test: xn = mol fraction of the nth substance listed
Conditions: 100 kPa, Liquid, Vibrating tube method

CCCC[N+]1(C)CCCC1.O=S(=O)([N-]S(=O)(=O)C(F)(F)F)C(F)(F)F + Cc1ccccc1
283.15 K
Conditions	mass density [kg/m3]
x2 = 0	1407.6
x2 = 0.509	1276.06
x2 = 0.574	1250.95
x2 = 0.611	1228.59
x2 = 0.73	1160.93

CCCC[N+]1(C)CCCC1.O=S(=O)([N-]S(=O)(=O)C(F)(F)F)C(F)(F)F + c1ccccc1
283.15 K
Conditions	mass density [kg/m3]
x2 = 0	1410.45
x2 = 0.106	1394.11
x2 = 0.309	1355.03
x2 = 0.505	1296.91
x2 = 0.714	1203.57
x2 = 0.813	1133.23

CCCC[N+](C)(CCCC)CCCC.O=S(=O)([N-]S(=O)(=O)C(F)(F)F)C(F)(F)F [tributylmethylammonium bis((trifluoromethyl)sulfonyl)imide] + CCc1ccccc1
343.15 K
Conditions	mass density [kg/m3]
x2 = 0	1224.15
x2 = 0.105	1210.81
x2 = 0.203	1197.48
x2 = 0.295	1179.85
x2 = 0.389	1160.38
x2 = 0.461	1142.53
x2 = 0.584	1105.8
x2 = 0.701	1065.88
x2 = 0.732	1053.69

CCCC[N+]1(C)CCCC1.N#CN=C=[N-] [1-butyl-1-methylpyrrolidinium dicyanamide] + Cc1ccccc1
283.15 K
Conditions	mass density [kg/m3]
x2 = 0	1022.97
x2 = 0.054	1020.33
x2 = 0.103	1018.02
x2 = 0.205	1012.43
x2 = 0.304	1006.23
x2 = 0.387	1000.63
x2 = 0.454	993.84
x2 = 0.528	986.94

CCCC[N+]1(C)CCCC1.O=S(=O)([O-])C(F)(F)F [1-butyl-1-methylpyrrolidinium trifluoromethanesulfonate] + Cc1cccc(C)c1
283.15 K
Conditions	mass density [kg/m3]
x2 = 0	1263.17
x2 = 0.054	1253.29
x2 = 0.11	1241.72
x2 = 0.202	1221.84
x2 = 0.308	1195.52
x2 = 0.352	1184.04
x2 = 0.402	1170.32
x2 = 0.418	1165.83

CCCC[N+]1(C)CCCC1.O=S(=O)([O-])C(F)(F)F [1-butyl-1-methylpyrrolidinium trifluoromethanesulfonate] + Cc1ccc(C)cc1
283.15 K
Conditions	mass density [kg/m3]
x2 = 0	1263.17
x2 = 0.053	1249.16
x2 = 0.102	1242.37
x2 = 0.203	1216.86
x2 = 0.306	1195.95
x2 = 0.361	1180.48
x2 = 0.415	1164.5

CCCC[N+]1(C)CCCC1.O=S(=O)([O-])C(F)(F)F [1-butyl-1-methylpyrrolidinium trifluoromethanesulfonate] + c1ccccc1
283.15 K
Conditions	mass density [kg/m3]
x2 = 0	1263.28
x2 = 0.047	1257.62
x2 = 0.095	1251.22
x2 = 0.199	1235.63
x2 = 0.293	1218.76
x2 = 0.405	1195.65
x2 = 0.503	1170.77
x2 = 0.601	1140.47
x2 = 0.644	1125.22
x2 = 0.675	1112.49
x2 = 0.701	1101.39
x2 = 0.718	1093.71
x2 = 0.738	1084.59

CCCC[N+](C)(CCCC)CCCC.O=S(=O)([N-]S(=O)(=O)C(F)(F)F)C(F)(F)F [tributylmethylammonium bis((trifluoromethyl)sulfonyl)imide] + Cc1ccccc1C
343.15 K
Conditions	mass density [kg/m3]
x2 = 0	1224.15
x2 = 0.152	1204.93
x2 = 0.26	1188.05
x2 = 0.365	1168.37
x2 = 0.506	1134.17
x2 = 0.623	1096.91
x2 = 0.751	1046.57

CCCC[N+](C)(C)C.O=S(=O)([N-]S(=O)(=O)C(F)(F)F)C(F)(F)F [butyltrimethylammonium bis(trifluoromethylsulfonyl)imide] + Cc1ccccc1C
343.15 K
Conditions	mass density [kg/m3]
x2 = 0	1348.32
x2 = 0.046	1343.67
x2 = 0.099	1331.9
x2 = 0.207	1306.39
x2 = 0.309	1276.95
x2 = 0.398	1246.25
x2 = 0.481	1213.91
x2 = 0.542	1191.25

CCCC[N+]1(C)CCCC1.O=S(=O)([N-]S(=O)(=O)C(F)(F)F)C(F)(F)F + Cc1ccc(C)cc1
283.15 K
Conditions	mass density [kg/m3]
x2 = 0	1407.6
x2 = 0.207	1361.17
x2 = 0.357	1315.5
x2 = 0.507	1254.4
x2 = 0.617	1193.73

CCCC[N+]1(C)CCCC1.O=S(=O)([N-]S(=O)(=O)C(F)(F)F)C(F)(F)F + Cc1cccc(C)c1
283.15 K
Conditions	mass density [kg/m3]
x2 = 0	1410.45
x2 = 0.206	1361.63
x2 = 0.372	1318.08
x2 = 0.491	1259.92
x2 = 0.616	1191.7

CCCC[N+](C)(C)C.O=S(=O)([N-]S(=O)(=O)C(F)(F)F)C(F)(F)F [butyltrimethylammonium bis(trifluoromethylsulfonyl)imide] + Cc1cccc(C)c1
343.15 K
Conditions	mass density [kg/m3]
x2 = 0	1348.32
x2 = 0.057	1340.71
x2 = 0.099	1330.46
x2 = 0.2	1304.78
x2 = 0.305	1274.33
x2 = 0.411	1235.86
x2 = 0.45	1222.37
x2 = 0.502	1201.38

CCCC[N+]1(C)CCCC1.N#CN=C=[N-] [1-butyl-1-methylpyrrolidinium dicyanamide] + Cc1ccc(C)cc1
283.15 K
Conditions	mass density [kg/m3]
x2 = 0	1022.94
x2 = 0.055	1019.77
x2 = 0.109	1015.55
x2 = 0.21	1009.54
x2 = 0.27	1005.7
x2 = 0.335	1000.17
x2 = 0.389	993.97

CCCC[N+](C)(CCCC)CCCC.O=S(=O)([N-]S(=O)(=O)C(F)(F)F)C(F)(F)F [tributylmethylammonium bis((trifluoromethyl)sulfonyl)imide] + Cc1ccccc1
343.15 K
Conditions	mass density [kg/m3]
x2 = 0	1224.15
x2 = 0.055	1218.2
x2 = 0.104	1212.25
x2 = 0.199	1200.37
x2 = 0.303	1184.47
x2 = 0.411	1163.41
x2 = 0.586	1117.48
x2 = 0.799	1036.86
x2 = 0.84	1016.08

CCCC[N+]1(C)CCCC1.O=S(=O)([N-]S(=O)(=O)C(F)(F)F)C(F)(F)F + CCc1ccccc1
283.15 K
Conditions	mass density [kg/m3]
x2 = 0	1410.45
x2 = 0.312	1332.47
x2 = 0.417	1296.15
x2 = 0.489	1268.45
x2 = 0.636	1201.58

CCCC[N+]1(C)CCCC1.N#CN=C=[N-] [1-butyl-1-methylpyrrolidinium dicyanamide] + Cc1cccc(C)c1
283.15 K
Conditions	mass density [kg/m3]
x2 = 0	1022.94
x2 = 0.057	1019.68
x2 = 0.112	1016.11
x2 = 0.202	1009.68
x2 = 0.26	1006.3
x2 = 0.318	1000.45
x2 = 0.388	995.25
